These results are taken from patent US5393744A, “Glucosyl phosphotriesters of thymidine” (Institut Pasteur, priority 1988, dated 1995).

Common to all, as to format: cell-based
The test system of experiment [1] is recombinant retrovirus of murine origin (MoMLV). As to the kind of experiment: Residual virus (clones of βgal+ cells) after infection of mouse 3T3 test cells with LacZ recombinant MoMLV retrovirus. The following applies: 3T3 cells; for residual virus (% not inhibited) at 10 µM: 10^-5 M; for residual virus (% not inhibited) at 1 µM: 10^-6 M. As for the experimental part:
The virus used is a recombinant retrovirus of murine origin (MoMLV) in which a reporter gene (LacZ) has been introduced.
Fixed amounts of LacZ recombinant retroviruses are placed in the presence of mouse infectable test cells (3T3) with or without the product to be tested. To each recombinant retrovirus corresponds a clone of β gal^+ cells. The number of clones of βgal^+ cells is read 48 hours after the infection. The % of the residual virus (not inhibited by the product) is indicated in the following table (mean of several independent experiments): […]

Experiment [2] relates to HIV-1 virus. As to the kind of experiment: Infection of activated lymphocytes by the lysates of infected macrophages (co-culture, reverse transcriptase activity). The protocol:
(§1) The drugs 6651, AZT, 6714 and ddT were diluted in DMSO.
(§2) The virus HIV-1 utilized is derived from a culture supernatant of CEM-LAV 1 cells; these latter are maintained by the addition at each passage (every 3 or 4 days) of uninfected CEM cells. The titre of the virus in the clarified culture supernatant is higher than 10^6 cpm/ml in reverse transcriptase activity and 10^3 infectious units/ml on lymphocytes of sero-negative donors.
The lymphocytes were isolated from the peripheral blood of sero-negative donors on a Ficoll^R gradient (MSL, Eurobio). The lymphocytes thus obtained were stimulated with the phytohemaglutinin p(PHA-p) for 3 days before their utilization.
The lymphocytes are cultivated in RPMI 1640 medium, supplemented with 10% of fetal calf serum, 10% of interleukin 2, 2 μg/ml of polybrene, 1% of glutamine, 1% of antibiotics.
(§3) The macrophages were obtained from a deleucocytation pocket. The mononucleated cells were separated on a Ficoll^R gradient. The cells were adjusted to 50.10^6 cells/ml in the RPMI 1640 medium (MBA) containing 20% fetal calf serum (Flow), 10 mM Hepes (Sigma), 1% of PSN and 1% of glutamine (Gibco). After 1 h of incubation at 4° C. with gentle shaking, the macrophages agglutinate among themselves. The agglutinated macrophages are sedimented for 15 mn at 4° C. The supernatant containing an enrichment in lymphocytes was removed and the pellet enriched in macrophages was diluted to 5.10^6 cells/ml in the medium previously described. The cell suspension was then placed in Petri dishes of 60 mm diameter and placed at 37° C. for 1 h 30. The unattached cells are removed and the washed cell carpet was then detached with a scraper. The cells thus recovered were used directly for the study.
(§4) For this study, the production of HIV-1 virus by infected macrophages in the presence or absence of the drugs 6714 or ddT and 6651 or AZT were monitored either in continuous culture for at least 30 days or after lysis of the macrophages at day +14 and infection of lymphocytes by this lysate.
The quantity of cells placed in culture and the conditions of infection are identical with those previously described.
At day 14 after infection, the macrophages were lysed by two successive freezings to -20° C. and thawings at 37° C. The lysate recovered was then utilized as inoculum to infect 3.10^6 activated lymphocytes derived from a sero-negative donor. After 1 h of absorption, the lymphocytes were adjusted to 10^6 cells per ml and the drugs were added at the concentrations corresponding to those of the lysate.
The lymphocytes were subcultured every 3 or 4 days and an assay of the reverse transcriptase was carried out starting from the culture supernatant at each passage.
(§5) 3) Measurement of the reverse transcriptase activity
(§6) The reverse transcriptase activity is assayed starting from 1 ml of culture supernatant concentrated 100 times by ultra-centrifugation for 5 mn at 95.000 rpm (Rotor TL 100^R Beckman).
(§7) The pellet is resuspended in 10 μl of NTE Triton^R ×100 0.1%.
(§8) After 1 h at 37° C., the acid-insoluble products are precipitated by 20% trichloroacetic acid, filtered onto 0.45μ Millipore^R and the B radioactivity is measured with the aid of a Kontron scintillation counter.

In experiment [3] the test system is HIV-1 virus. The experiment in a line: Replication of HIV-1 in macrophages of sero-negative donors, continuous culture (reverse transcriptase activity). As for the experimental part:
as §1, §2, §3, §4
For each test, 15.10^6 cells were or were not infected with the HIV-1 virus (6000 cpm/10^6 cells). After 1 h of absorption at 37° C., the cells were placed in 6-wells Costar plates and 5.10^-5 M or 10^-5 M of the drugs 6714 and ddT and 10^-5 M, 10^-6 M or 10^-7 M of the drugs 6651 and AZT were added to the culture medium. The medium was changed every 3 or 4 days and the reverse transcriptase activity was determined in the culture supernatant. The drugs were added at each passage to the culture medium at the respective concentrations indicated above.
as §5, §6, §7, §8

Where [4] appears, read: NIH3T3, 48 hours after infection, mean of several experiments, read-out: % of the residual virus (not inhibited by the product).

SMILES strings stand for the structures.

For `Cc1cn([C@H]2CC[C@@H](COP(=O)(O)OC[C@H]3OC(O)[C@H](O)[C@@H](O)[C@@H]3O)O2)c(=O)[nH]c1=O` (stereo partly shown) [compound 6714, 6-glucosyl 5'-(3'-deoxy)-thymidinyl phosphate], in experiment [1] (setting [4]), the residual virus (% not inhibited) at 10 µM came out at 4% and the residual virus (% not inhibited) at 1 µM was found to be 12%. The residual virus (% not inhibited) at 0.1 µM in experiment [1] (NIH3T3, 10^-7 M, 48 hours after infection, mean of several experiments, read-out: % of the residual virus (not inhibited by the product)) is 66%. In experiment [1] (recombinant MoMLV), the “retroviral activity (in words)” value is “active by themselves”. Further, the “viral production by activated lymphocytes with lysates of infected treated macrophages (general statement)” value in experiment [2] (lysate at day 14) is given as “make it possible to obtain a vital production by activated lymphocytes”. Besides, the “viral production by activated lymphocytes, compared to untreated lysate” value in experiment [2] (whatever the concentration tested (5.10^-5 M, 10^-5 M)) is given as “comparable to the untreated lysate”. In addition, the “multiplication of the HIV-1 virus in the macrophages” value in experiment [2] (whatever the concentration tested, 5.10^-6 M or 10^-5 M) is listed as “there is multiplication of the HIV-1 virus in the macrophages, but the escape of the virus seems to be blocked”. In experiment [3] (5.10^-5 M and 10^-5 M), the “proliferation of the HIV-1 virus in the macrophages” value is “block the proliferation of the HIV-1 virus in the macrophages”.

Consider `CCCCCCCCCCCCCCCCOP(=O)(OC[C@H]1OC(O)[C@H](O)[C@@H](O)[C@@H]1O)OC[C@H]1O[C@@H](n2cc(C)c(=O)[nH]c2=O)C[C@@H]1N=[N+]=[N-]` (stereo partly shown) [compound 6651, 6-glucosyl hexadecyl 5'-(3'-azido) thymidinyl phosphate], for which the residual virus (% not inhibited) at 100 µM in experiment [1] (NIH3T3, 10^-4 M, 48 hours after infection, mean of several experiments, read-out: % of the residual virus (not inhibited by the product)) is 11%. Besides, in experiment [1] (setting [4]), the residual virus (% not inhibited) at 10 µM was determined as 65% and the residual virus (% not inhibited) at 1 µM was found to be 94%. Further, in experiment [2] (10^-5 M and 10^-6 M (FIG. 4c)), the “viral production on the lymphocytes with the lysates of treated macrophages” value is “no viral production is obtained on the lymphocytes”. The “multiplication of the HIV-1 virus at the interior of the macrophage” value in experiment [2] (10^-5 M and 10^-6 M, same result as AZT (no multiplication)) is “this same result is obtained”. Further, the “multiplication of the HIV-1 virus in the macrophages” value in experiment [2] (10^-7 M) is on record as “there is multiplication of the HIV-1 virus in the macrophages, but the escape of the virus seems to be blocked”. Moreover, the “viral production on the lymphocytes with the lysates of treated macrophages” value in experiment [2] (10^-7 M (FIG. 4c)) is on record as “A low viral production is observed”. The “proliferation of the HIV-1 virus in the macrophages” value in experiment [3] (10^-5 M, 10^-6 M and 10^-7 M) was “block the proliferation of the HIV-1 virus in the macrophages”.
